From patent US12576083B2, “Combinational therapy of LSD1 inhibitors with P21 activators in the treatment of cancer” (Istituto Europeo di Oncologia S.r.l., priority 2017, dated 2026)

System: p21
Assay: p21 expression in NB4 cells treated with HDAC inhibitors
Format: cell-based
Conditions: with p21-shRNA or scramble shRNA
Experimental: FIGS. 9A-9C. […] (FIG. 9B) NB4 cells were infected with SCR (control) or P21 shRNA, and knockdown was monitored by qPCR. Values are normalized against GAPDH. (FIG. 9C) Monitoring of p21 expression upon the indicated treatments. (SCR=Scramble shRNA, NI=Not Infected, HDACi=HDAC inhibitor=SAHA or TSA).
NB4 cells were treated with HDAC inhibitors, trichostatin A (TSA) and suberoylanilide hydroxamic acid (SAHA), in combination with p21-shRNA or scramble shRNA (SCR). NB4 cells with p21 knock-down without HDAC inhibitor treatment (p21KD-DMSO), NB4 cells without p21 knock-down and without HDAC inhibitor treatment (Scr-DMSO), untreated UF1 cells (UF1-DMSO) were included as control.

O=C(CCCCCCC(=O)Nc1ccccc1)NO [SAHA, suberoylanilide hydroxamic acid]
p21 expression in NB4 cells: induced p21 expression

CC(/C=C/C(=O)NO)=C\[C@@H](C)C(=O)c1ccc(N(C)C)cc1 [TSA, trichostatin A]
p21 expression in NB4 cells: induced p21 expression
